Source: patent US20190382396A1, “SALTS OF BICYCLO[1.1.1]PENTANE INHIBITORS OF DUAL LEUCINE ZIPPER (DLK) KINASE FOR THE TREATMENT OF DISEASE” (Board of Regents, The University of Texas System, priority 2018, published 2019)
Like-named read-outs stand apart in the source and are kept apart here.

Legend:
Format in all cases: physicochemical
[1] = Solubility in physiologically relevant solutions (SGF, FaSSIF, FeSSIF); conditions: 25±0.5° C.; for solubility at 24 h: 25 °C, thermodynamic from solid
Method: Solubility of the free base 1 and the selected salts 8, 9, 10, and 11 in physiologically relevant solutions were examined. For each material, aliquots were added to 2 ml vials containing 500 uL of either SGF, FaSSIF, or FeSSIF, which were then sealed. The mixtures were kept shaking by thermomixer at 700 rpm, 25±0.5° C. for 24 h to facilitate the dissolution and then centrifuged by 96-well plates at 3000 rpm for 2 min. The filter liquors were diluted with diluents (ACN/water, 50/50) and analyzed by HPLC.

[2] = Dynamic vapor sorption (DVS), hygroscopicity; conditions: for Maximum sorption / Hygroscopicity (0-40% RH) / Hygroscopicity (0-90% RH) / Change in mass, Desorption / Change in mass, Sorption / Change in mass, Hysteresis: DVS; for Maximum sorption / Hygroscopicity (0-40% RH) / Hygroscopicity (0-90% RH): 25° C.; for Hygroscopicity; form change: form change after DVS
Method: Dynamic vapor sorption (“DVS”) was performed at 25° C., using approx 10-15 mg of sample and N2 gas at a flow rate of 200 mL/min, dm/dt=0.01% min, minimum dm/dt stability duration of 10 min, max equilibration time of 180 min, drying at 0% RH for 120 min, scanning from 0% RH to 90% RH to 0% RH with a step size of 10% RH.
Total cycling time varied, but in all cases was about 200-250 min.

[3] = Stability (50° C., 40° C./75% RH, light; 1 week); conditions: for XRPD change? / purity: bulk, 1 week; for initial purity: initial (before storage)
Method: The stability of the free base 1 and the selected salts 8, 9, 10, and 11 was evaluated. For each material, aliquots were set up at each of conditions (50° C., 40° C./75% RH, light) at given time points (initial and 1 week). PXRD diffractograms of the hydrogen fumarate salt 11 is shown in FIG. 17, with trace (a) showing the initial salt, trace (b) showing the salt after light treatment, trace (c) showing the salt after storage at 40° C. and 75% relative humidity for 1 week, and (d) showing the salt after storage at 50° C. for 1 week.

[4] = simulated gastric fluid, SGF, read-out: Solubility SGF Conc
[5] = FaSSIF, read-out: Solubility FaSSIF Conc
[6] = FeSSIF, read-out: Solubility FeSSIF Conc

SMILES: CC(C)c1nc(-c2cnc(N)c(OC(F)(F)F)c2)cn1C12CC(N3CCOCC3)(C1)C2.O=C(O)CC(O)(CC(=O)O)C(=O)O [Example 8, 5-(2-isopropyl-1-(3-morpholinobicyclo[1.1.1]pentan-1-yl)-1H-imidazol-4-yl)-3-(trifluoromethoxy)pyridin-2-amine dihydrogen citrate]
- solubility at 24 h [1, 4]: 6330 µg/mL
- solubility at 24 h [1, 5]: 113 µg/mL
- solubility at 24 h [1, 6]: 773 µg/mL
- FaSSIF pH after 24 h ([1]; FaSSIF): 5.53
- FeSSIF pH after 24 h ([1]; FeSSIF): 4.86
- SGF pH after 24 h ([1]; SGF): 3.26
- Maximum sorption [2]: 0.60%
- Hygroscopicity (0-40% RH) [2]: 0.17%
- Hygroscopicity (0-90% RH) [2]: 0.6%
- Change in mass, Desorption ([2]; Target % P/P0 0.0): 0.0373%
- Change in mass, Sorption ([2]; Target % P/P0 0.0): 0.0000%
- Change in mass, Desorption ([2]; Target % P/P0 10.0): 0.0913%
- Change in mass, Hysteresis ([2]; Target % P/P0 10.0): 0.0426%
- Change in mass, Sorption ([2]; Target % P/P0 10.0): 0.0487%
- Change in mass, Desorption ([2]; Target % P/P0 20.0): 0.1293%
- Change in mass, Hysteresis ([2]; Target % P/P0 20.0): 0.0411%
- Change in mass, Sorption ([2]; Target % P/P0 20.0): 0.0882%
- Change in mass, Desorption ([2]; Target % P/P0 30.0): 0.1757%
- Change in mass, Hysteresis ([2]; Target % P/P0 30.0): 0.0502%
- Change in mass, Sorption ([2]; Target % P/P0 30.0): 0.1255%
- Change in mass, Desorption ([2]; Target % P/P0 40.0): 0.2145%
- Change in mass, Hysteresis ([2]; Target % P/P0 40.0): 0.0418%
- Change in mass, Sorption ([2]; Target % P/P0 40.0): 0.1727%
- Change in mass, Desorption ([2]; Target % P/P0 50.0): 0.2609%
- Change in mass, Hysteresis ([2]; Target % P/P0 50.0): 0.0418%
- Change in mass, Sorption ([2]; Target % P/P0 50.0): 0.2191%
- Change in mass, Desorption ([2]; Target % P/P0 60.0): 0.3119%
- Change in mass, Hysteresis ([2]; Target % P/P0 60.0): 0.0388%
- Change in mass, Sorption ([2]; Target % P/P0 60.0): 0.2731%
- Change in mass, Desorption ([2]; Target % P/P0 70.0): 0.3743%
- Change in mass, Hysteresis ([2]; Target % P/P0 70.0): 0.0320%
- Change in mass, Sorption ([2]; Target % P/P0 70.0): 0.3423%
- Change in mass, Desorption ([2]; Target % P/P0 80.0): 0.4565%
- Change in mass, Hysteresis ([2]; Target % P/P0 80.0): 0.0228%
- Change in mass, Sorption ([2]; Target % P/P0 80.0): 0.4336%
- Change in mass, Desorption ([2]; Target % P/P0 90.0): 0.6040%
- Change in mass, Sorption ([2]; Target % P/P0 90.0): 0.6040%
- Hygroscopicity; form change [2]: no change
- XRPD change? ([3]; 40° C., 75% RH): no
- purity ([3]; 40° C., 75% RH): 99.41%
- XRPD change? ([3]; 50° C.): no
- purity ([3]; 50° C.): 98.91%
- initial purity [3]: 99.58%
- XRPD change? ([3]; light): no
- purity ([3]; light): 99.44%

SMILES: CC(C)c1nc(-c2cnc(N)c(OC(F)(F)F)c2)cn1C12CC(N3CCOCC3)(C1)C2.O=C(O)/C=C\C(=O)O [Example 9, 5-(2-isopropyl-1-(3-morpholinobicyclo[1.1.1]pentan-1-yl)-1H-imidazol-4-yl)-3-(trifluoromethoxy)pyridin-2-amine hydrogen maleate]
- solubility at 24 h [1, 4]: 13400 µg/mL
- solubility at 24 h [1, 5]: 113 µg/mL
- solubility at 24 h [1, 6]: 565 µg/mL
- FaSSIF pH after 24 h ([1]; FaSSIF): 5.65
- FeSSIF pH after 24 h ([1]; FeSSIF): 4.90
- SGF pH after 24 h ([1]; SGF): 3.26
- Maximum sorption [2]: 0.27%
- Hygroscopicity (0-40% RH) [2]: 0.07%
- Hygroscopicity (0-90% RH) [2]: 0.27%
- Change in mass, Desorption ([2]; Target % P/P0 0.0): −0.0030%
- Change in mass, Sorption ([2]; Target % P/P0 0.0): 0.0000%
- Change in mass, Desorption ([2]; Target % P/P0 10.0): 0.0196%
- Change in mass, Hysteresis ([2]; Target % P/P0 10.0): 0.0015%
- Change in mass, Sorption ([2]; Target % P/P0 10.0): 0.0181%
- Change in mass, Desorption ([2]; Target % P/P0 20.0): 0.0354%
- Change in mass, Hysteresis ([2]; Target % P/P0 20.0): 0.0038%
- Change in mass, Sorption ([2]; Target % P/P0 20.0): 0.0317%
- Change in mass, Desorption ([2]; Target % P/P0 30.0): 0.0573%
- Change in mass, Hysteresis ([2]; Target % P/P0 30.0): 0.0151%
- Change in mass, Sorption ([2]; Target % P/P0 30.0): 0.0422%
- Change in mass, Desorption ([2]; Target % P/P0 40.0): 0.0747%
- Change in mass, Hysteresis ([2]; Target % P/P0 40.0): 0.0090%
- Change in mass, Sorption ([2]; Target % P/P0 40.0): 0.0656%
- Change in mass, Desorption ([2]; Target % P/P0 50.0): 0.0950%
- Change in mass, Hysteresis ([2]; Target % P/P0 50.0): 0.0136%
- Change in mass, Sorption ([2]; Target % P/P0 50.0): 0.0814%
- Change in mass, Desorption ([2]; Target % P/P0 60.0): 0.1199%
- Change in mass, Hysteresis ([2]; Target % P/P0 60.0): 0.0158%
- Change in mass, Sorption ([2]; Target % P/P0 60.0): 0.1041%
- Change in mass, Desorption ([2]; Target % P/P0 70.0): 0.1516%
- Change in mass, Hysteresis ([2]; Target % P/P0 70.0): 0.0189%
- Change in mass, Sorption ([2]; Target % P/P0 70.0): 0.1327%
- Change in mass, Desorption ([2]; Target % P/P0 80.0): 0.1938%
- Change in mass, Hysteresis ([2]; Target % P/P0 80.0): 0.0151%
- Change in mass, Sorption ([2]; Target % P/P0 80.0): 0.1787%
- Change in mass, Desorption ([2]; Target % P/P0 90.0): 0.2655%
- Change in mass, Sorption ([2]; Target % P/P0 90.0): 0.2655%
- Hygroscopicity; form change [2]: no change
- XRPD change? ([3]; 40° C., 75% RH): no
- purity ([3]; 40° C., 75% RH): 99.87%
- XRPD change? ([3]; 50° C.): no
- purity ([3]; 50° C.): 99.89%
- initial purity [3]: 99.83%
- XRPD change? ([3]; light): no
- purity ([3]; light): 99.79%

SMILES: CC(C)c1nc(-c2cnc(N)c(OC(F)(F)F)c2)cn1C12CC(N3CCOCC3)(C1)C2.O=C(O)CCC(=O)O [Example 10, 5-(2-isopropyl-1-(3-morpholinobicyclo[1.1.1]pentan-1-yl)-1H-imidazol-4-yl)-3-(trifluoromethoxy)pyridin-2-amine hydrogen succinate]
- solubility at 24 h [1, 4]: 7080 µg/mL
- solubility at 24 h [1, 5]: 72.2 µg/mL
- solubility at 24 h [1, 6]: 642 µg/mL
- FaSSIF pH after 24 h ([1]; FaSSIF): 5.92
- FeSSIF pH after 24 h ([1]; FeSSIF): 4.88
- SGF pH after 24 h ([1]; SGF): 3.71
- Maximum sorption [2]: 0.30%
- Hygroscopicity (0-40% RH) [2]: 0.05%
- Hygroscopicity (0-90% RH) [2]: 0.3%
- Change in mass, Desorption ([2]; Target % P/P0 0.0): 0.0514%
- Change in mass, Sorption ([2]; Target % P/P0 0.0): 0.0000%
- Change in mass, Desorption ([2]; Target % P/P0 10.0): 0.0647%
- Change in mass, Hysteresis ([2]; Target % P/P0 10.0): 0.0496%
- Change in mass, Sorption ([2]; Target % P/P0 10.0): 0.0151%
- Change in mass, Desorption ([2]; Target % P/P0 20.0): 0.0727%
- Change in mass, Hysteresis ([2]; Target % P/P0 20.0): 0.0487%
- Change in mass, Sorption ([2]; Target % P/P0 20.0): 0.0239%
- Change in mass, Desorption ([2]; Target % P/P0 30.0): 0.0930%
- Change in mass, Hysteresis ([2]; Target % P/P0 30.0): 0.0611%
- Change in mass, Sorption ([2]; Target % P/P0 30.0): 0.0319%
- Change in mass, Desorption ([2]; Target % P/P0 40.0): 0.1081%
- Change in mass, Hysteresis ([2]; Target % P/P0 40.0): 0.0549%
- Change in mass, Sorption ([2]; Target % P/P0 40.0): 0.0532%
- Change in mass, Desorption ([2]; Target % P/P0 50.0): 0.1267%
- Change in mass, Hysteresis ([2]; Target % P/P0 50.0): 0.0541%
- Change in mass, Sorption ([2]; Target % P/P0 50.0): 0.0727%
- Change in mass, Desorption ([2]; Target % P/P0 60.0): 0.1489%
- Change in mass, Hysteresis ([2]; Target % P/P0 60.0): 0.0514%
- Change in mass, Sorption ([2]; Target % P/P0 60.0): 0.0975%
- Change in mass, Desorption ([2]; Target % P/P0 70.0): 0.1790%
- Change in mass, Hysteresis ([2]; Target % P/P0 70.0): 0.0523%
- Change in mass, Sorption ([2]; Target % P/P0 70.0): 0.1267%
- Change in mass, Desorption ([2]; Target % P/P0 80.0): 0.2233%
- Change in mass, Hysteresis ([2]; Target % P/P0 80.0): 0.0292%
- Change in mass, Sorption ([2]; Target % P/P0 80.0): 0.1941%
- Change in mass, Desorption ([2]; Target % P/P0 90.0): 0.3013%
- Change in mass, Sorption ([2]; Target % P/P0 90.0): 0.3013%
- Hygroscopicity; form change [2]: no change
- XRPD change? ([3]; 40° C., 75% RH): no
- purity ([3]; 40° C., 75% RH): 100%
- XRPD change? ([3]; 50° C.): no
- purity ([3]; 50° C.): 100%
- initial purity [3]: 99.74%
- XRPD change? ([3]; light): no (2)
- purity ([3]; light): 99.74%
